Results as given in article PMC7119080 (Bioorganic & Medicinal Chemistry Letters, 2005).

Tests used:
Papain = Papain (Carica papaya, UniProt P00784); type: biochemical
Chymotrypsin = Chymotrypsin (Bos taurus, UniProt P00766); assay: biochemical

Chain of Papain (P00784 134-345 limits assumed): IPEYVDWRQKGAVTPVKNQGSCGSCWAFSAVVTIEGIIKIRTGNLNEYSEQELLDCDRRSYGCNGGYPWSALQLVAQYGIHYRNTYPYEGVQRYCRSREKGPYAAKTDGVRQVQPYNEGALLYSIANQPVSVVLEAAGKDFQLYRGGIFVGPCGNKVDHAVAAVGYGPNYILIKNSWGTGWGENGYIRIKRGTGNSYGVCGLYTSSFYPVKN

In the case of `O=C1C(=O)N(Cc2cc3ccccc3s2)c2c(Br)cccc21` [Compound 4k], the “more potent inhibition for SARS CoV 3CL^pro than for papain” value (Papain) is reported as 90–105 times and the IC50 (Chymotrypsin) is reported as 10.4 µM.

In the case of `O=C1C(=O)N(Cc2cc3ccccc3s2)c2ccc(I)cc21` [Compound 4o], the “more potent inhibition for SARS CoV 3CL^pro than for papain” value (Papain) is reported as 90–105 times.
